Assay results published in publication PMC6264390, “Design, Synthesis and Structure-activity Studies of Rhodanine Derivatives as HIV-1 Integrase Inhibitors” (Molecules, 2010).

Assays:
[1] = molecular target: T1, human apurinic/apyrimidinic endonuclease 1 (APE1) (Homo sapiens, UniProt P27695); assay: APE1 inhibition assay; format: biochemical; conditions: read-out: Inhibition of APE1 catalytic activity IC50
T1 construct: His; made in house
Outline: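 His-tagged APE1 (0.05 nM) preincubated with compound 10 min at 30 °C in MOPS pH 7.2 buffer with 7.5 mM MnCl2 and 10% DMSO, then 200 nM 5′-32P-labelled abasic (THF) duplex added for 10 min. Incision products resolved on denaturing gel, phosphorimaged; IC50 from %I versus log concentration.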

[2] = test system: Panc-1 pancreatic cancer cell line; assay: MTT cytotoxicity assay, Panc-1; format: cell-based; conditions: Homo sapiens, 72 h
Text: (§1) Human melanoma cell line MDA-MB 435, pancreatic cancer cell line Panc-1, and colon cancer cell line HT 29 were purchased from the American Type Cell Culture (Manassas, VA, USA). HCT 116 p53^+/+ and HCT 116 p53^−/^− were kindly provided by Dr. Bert Vogelstein, Johns Hopkins Medical Institutions (Baltimore, MD, USA). HCT 116 p53^+/+, HCT116 p53^−/^−, and HT 29 cells were maintained as monolayer cultures in RPMI 1640 supplemented with 10% fetal bovine serum (FBS; Gemini-Bioproducts, Woodland, CA, USA) and 2 mmol/L L-glutamine at 37 °C in a humidified atmosphere of 5% CO2. Similarly, MDA-MB 435 and Panc-1 cells were maintained in Dulbecco’s modified Eagle’s medium (DMEM) supplemented with 10% fetal bovine serum as described above. […]
(§2) Cytotoxicity was assessed by 3-(4,5-dimethylthiazol-2-yl)-2,5-diphenyltetrazolium bromide (MTT) assay as previously described. […]
(§3) After 72 h exposure to the test compounds, MTT solution (5 mg/mL; 20 μL) was added to each well and cells were incubated for 4 h at 37 °C. […] The absorbance intensity was measured at 570 nm against appropriate blank controls using a microplate reader (Molecular Devices, Sunnyvale, CA, USA). […]

HCT 116 p53^+/+ = assay: MTT cytotoxicity assay, HCT 116 p53+/+; format: cell-based; conditions: Homo sapiens, 72 h
Text: as §1, §2, §3

HCT 116 p53^−/^− = assay: MTT cytotoxicity assay, HCT 116 p53−/−; format: cell-based; conditions: Homo sapiens, 72 h
Text: as §1, §2, §3

T1 sequence (P27695 whole entry): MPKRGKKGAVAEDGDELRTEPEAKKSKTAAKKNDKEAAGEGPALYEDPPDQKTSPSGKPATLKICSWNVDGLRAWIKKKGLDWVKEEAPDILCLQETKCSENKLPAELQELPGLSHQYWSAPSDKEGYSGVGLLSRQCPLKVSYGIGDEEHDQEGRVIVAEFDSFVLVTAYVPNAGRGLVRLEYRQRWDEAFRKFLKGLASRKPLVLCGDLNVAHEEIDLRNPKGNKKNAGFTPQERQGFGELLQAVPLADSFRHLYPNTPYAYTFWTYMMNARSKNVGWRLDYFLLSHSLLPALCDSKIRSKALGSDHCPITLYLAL

Row | Compound | IC50 [1] [µM] | GI50 [2] [µM] | GI50 (HCT 116 p53^+/+) [µM] | GI50 (HCT 116 p53^−/^−) [µM] | melting point [°C]
1 | O=C(Nc1ccc(Cl)cc1)C(=S)NN1C(=O)C(=Cc2ccc([N+](=O)[O-])o2)SC1=S [Compound 13, N-(4-chlorophenyl)-2-{5-[(5-nitro-2-furyl)methylene]-4-oxo-2-thioxo-1,3-thiazolidin-3-yl}amino-2-thioxoacetamide] | 93 | 8.6 ± 1.6 | > 10 | 6.5 ± 1.2 | 159 to 160
2 | COc1ccc(NC(=O)C(=S)NN2C(=O)C(=Cc3ccc([N+](=O)[O-])o3)SC2=S)cc1 [Compound 17, N-(4-methoxyphenyl)-2-{5-[(5-nitro-2-furyl)methylene]-4-oxo-2-thioxo-1,3-thiazolidin-3-yl}amino-2-thioxoacetamide] | > 100 | 8.2 ± 1.2 | 5.1 ± 0.8 | 6.1 ± 2.2 | 187 to 188
